Earlier results in patent US20250375395A1 (priority 2016, published 2025).

Conditions: carbonic acid/sodium bicarbonate

Compound: O=C([O-])O.[Na+] [sodium bicarbonate]
- pKa: 6.4
